Reference: US20080026076A1 (priority 2003, published 2008)

Columns and labels:
[1] = Ferric reducing antioxidant power (FRAP) of plasma; format: in vivo, human; settings: for FRAP, Endpoint: end of quercetin phase
Description: Blood samples were collected after blood pressure was measured. Blood was collected by antecubital venipuncture from fasting subjects into sodium heparin tubes (Becton Dickinson, N.J., USA). Collected blood was immediately stored on ice and centrifuged within 10 minutes at 4° C. for 15 minutes at 2500 g as previously described (36).
FRAP measures the ability of an antioxidant to reduce Fe^3+ to Fe^2+ (40), and is an index of plasma antioxidant potential in hypertensive patients (41-44). This assay was done as previously described (39). Briefly, plasma samples were diluted 1:2 with phosphate buffered saline, followed by addition of a reagent solution containing 0.8 mmol/L 2,4,6-tri-(2-pyridyl)-s-tirazine and 1.7 mmol/l FeCl3.6-H2O. Samples were then incubated at 37° C. for 15 min and the absorbance at 593 nm was recorded in a plate reader (Molecular Devices, Spectramax 340 pc).

[2] = 30 mg/kg quercetin (p.o.) in rats (ref. 61); cited from earlier work

SMILES: O=c1c(O)c(-c2ccc(O)c(O)c2)oc2cc(O)cc(O)c12 [quercetin, 3,5,7,3′,4′-pentahydroxyflavone]
- fasting plasma FRAP, quercetin supplementation vs. placebo ([1]; both groups of hypertensive subjects): not altered
- FRAP, Endpoint ([1]; prehypertensive (n=10), baseline 1080 ± 48): 1106 ± 61 µmol/L
- FRAP, Endpoint ([1]; stage 1 hypertensive (n=8), baseline 1056 ± 59): 1152 ± 69 µmol/L
- hypertensive response to i.v. administration of angiotensin II [2]: significantly blunted the hypertensive response
